Data taken from paper PMC4850295, “Using a Genetically Encoded Sensor to Identify Inhibitors of Toxoplasma gondii Ca^2+ Signaling” (The Journal of Biological Chemistry, 2016).
Where “and” joins values, the source holds several entries; their conditions need not be identical. Identical values can stand only once.

Each compound was assayed on T1, GCaMP5-expressing T. gondii. Settings: 100 uM zaprinast stimulation, 10 min pretreatment, mean of two replicates, 0.23 h, 10 µM.
T1 construct: whole extracellular parasites expressing GCaMP5 Ca2+ sensor
Design: species or system GCaMP5-expressing Toxoplasma gondii, extracellular; GCaMP5 fluorescence (cytosolic Ca2+) after 100 uM zaprinast in compound-pretreated extracellular parasites, background-subtracted, relative to zaprinast alone
In short: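 Extracellular GCaMP5-expressing parasites in Ringer's solution were pretreated with compounds (single 10 μM dose, two biological replicates) for 10 min, then stimulated with 100 μM zaprinast at 37 °C for 4 min. Fluorescence read at 485/525 nm, basal subtracted, expressed as fold change relative to zaprinast-only parasites.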

| SMILES | fold change in fluorescence relative to zaprinast alone |
| --- | --- |
| NS(=O)(=O)c1cccc(Nc2cc(-c3ccc(F)cc3)n[nH]2)c1 [GW824645A] | 1.167 and 1.492 |

Same assay, conditions: 100 uM zaprinast stimulation; 10 min pretreatment; mean of two replicates; 0.23 h

| SMILES | fold change in fluorescence relative to zaprinast alone |
| --- | --- |
| CN(c1ccc(NC(=O)Nc2ccc(OC(F)(F)F)cc2)cc1)c1ccnc(Nc2cccc(S(N)(=O)=O)c2)n1 [GW806742X] | 0.4394 |
| CCOc1ccc2c(-c3ccnc(Nc4cc(OC)cc(C(F)(F)F)c4)n3)cnn2n1 [GW807982X] | 0.9255 |
| COc1cccc(-n2nc(C)c3c(N/N=C(\C)c4ccncc4)ncnc32)c1 [GW809885X] | 1.233 |
| CN(c1ccc(NC(=O)Nc2cc(C(F)(F)F)ccc2F)cc1)c1ccnc(Nc2ccc(S(N)(=O)=O)cc2)n1 [GW809893X] | 0.2843 |
| CN(c1ccc(NC(=O)Nc2c(Cl)cccc2Cl)cc1)c1ccnc(Nc2cccc(CS(C)(=O)=O)c2)n1 [GW809897X] | 1.103 |
| CN(C(=O)c1ccc(-c2cc(-c3cn[nH]c3-c3ccccn3)ccn2)cc1)C1CCOCC1 [GW810083X] | 1.114 |
| COc1ccc2c(-c3ccnc(Nc4cccc(OC(F)(F)F)c4)n3)cnn2n1 [GW810372X] | 0.1756 |
| COc1ccc(NC(=O)c2ccoc2)cc1-c1ccc(C(=O)NCC2CC2)cc1 [GW810437X] | 1.267 |
| O=C(NCC1CC1)c1ccc(-c2cc(C(=O)NC3CC3)ccc2F)cc1 [GW810445X] | 1.232 |
| FC(F)(F)c1cc(Br)cc(Nc2nccc(-c3cnn4ncccc34)n2)c1 [GW810578X] | 0.9472 |
| COc1cccc(-n2ncc3c(N/N=C/c4ccc(S(C)(=O)=O)cc4)ncnc32)c1 [GW811168X] | 0.6755 |
| CN(c1ccc2c(c1)nc(NCc1ccccc1)n2C)c1ccnc(Nc2ccc(CS(C)(=O)=O)cc2)n1 [GW811603A] | 1.239 |
| CCOc1ccc2c(-c3ccnc(Nc4cccc(C(F)(F)F)c4)n3)cnn2n1 [GW811761X] | 1.047 |
| O=C(c1ccc(-c2cc(-c3cn[nH]c3-c3ccccn3)ccn2)cc1)N1CCOCC1 [GW812171X] | 1.17 |
| CN(c1ccc2c(c1)nc(NCc1ccc(F)cc1)n2C)c1ccnc(Nc2ccc(CS(C)(=O)=O)cc2)n1 [GW813244A] | 1.154 |
| COc1cccc(-n2cnc3c(N/N=C/c4ccncc4)ncnc32)c1 [GW813360X] | 1.13 |
| COc1cccc(-c2c[nH]c3c(N/N=C/c4ccncc4)ncnc23)c1 [GW814408X] | 0.6391 |
| COc1cccc(-n2ncc3c(N/N=C/c4cccc(F)c4)ncnc32)c1 [GW817394X] | 1.201 |
| COc1cccc(-n2ncc3c(N/N=C/c4ccc(F)cc4)ncnc32)c1 [GW817396X] | 1.185 |
| CCCNC(=O)Nc1ccc(N(C)c2ccnc(NC3CC3)n2)cc1 [GW818933X] | 0.4908 |
| c1ccc(-c2ccc3c(-c4ccnc(Nc5ccc6c(c5)OCCO6)n4)cnn3n2)cc1 [GW818941X] | 0.7769 |
| FC(F)(F)c1cccc(Nc2nccc(-c3cnn4nc(-c5ccccc5)ccc34)n2)c1 [GW819077X] | 0.1467 |

| SMILES | fold change in fluorescence relative to zaprinast alone |
| --- | --- |
| Cc1ccc(-c2cc3c(NC(=O)C4CC4)ncnc3o2)cc1 [GW819230X] | 1.19 |
| Cc1ccc2c(-c3ccnc(Nc4ccc(C(F)(F)F)cc4)n3)cnn2n1 [GW819776X] | 1.244 |
| Cc1ccc(C(=O)NC2CC2)cc1-c1ccc2[nH]ncc2c1 [GW820759X] | 1.265 |
| O=C(NCc1cccs1)c1cc(C(=O)c2c(Cl)cccc2Cl)c[nH]1 [GW823670X] | 1.033 |
| COc1ccc(-c2nn3ncccc3c2-c2ccnc(Nc3cccc(C(F)(F)F)c3)n2)cc1 [GW827105X] | 0.7957 |
| COc1ccc(-c2nn3ncccc3c2-c2ccnc(Nc3ccc4c(c3)OCCO4)n2)cc1 [GW827106X] | 0.9888 |
| CN1CCN(Cc2ccc(NC(=O)Nc3ccc(N(C)c4ccnc(Nc5ccc(CS(C)(=O)=O)cc5)n4)cc3)cc2)CC1 [GW827654A] | 1.248 |
| FC(F)(F)c1ccc(-c2nn3ncccc3c2-c2ccnc(Nc3cccc(C(F)(F)F)c3)n2)cc1 [GW828205X] | 0.4128 |
| FC(F)(F)c1ccc(-c2nn3ncccc3c2-c2ccnc(Nc3ccccc3)n2)cc1 [GW828206X] | 0.303 |
| Clc1ccc(-c2nn3ncccc3c2-c2ccnc(Nc3ccccc3)n2)cc1 [GW829055X] | 1.188 |
| Fc1ccc(Nc2nccc(-c3c(-c4ccc(Cl)cc4)nn4ncccc34)n2)cc1F [GW829058X] | 1.046 |
| Clc1ccc(-c2nn3ncccc3c2-c2ccnc(Nc3ccc4c(c3)OCCO4)n2)cc1 [GW829116X] | 0.6156 |
| FC(F)(F)c1ccc(-c2nn3ncccc3c2-c2ccnc(Nc3ccc(Cl)c(C(F)(F)F)c3)n2)cc1 [GW829350X] | 0.9679 |
| FC(F)(F)c1cc(Nc2nccc(-c3c(-c4ccc(Cl)cc4)nn4ncccc34)n2)ccc1Cl [GW829351X] | 0.8408 |
| COc1cccc(/C=N/Nc2ncnc3c2cnn3-c2cccc(OC)c2)c1 [GW829874X] | 1.214 |
| COc1cccc(-n2ncc3c(N/N=C/c4ccc(C)cc4)ncnc32)c1 [GW829877X] | 1.18 |
| CN1CCN(C(=O)c2ccc(NC(=O)Nc3ccc(N(C)c4ccnc(Nc5ccc(CS(C)(=O)=O)cc5)n4)cc3)cc2)CC1 [GW830263A] | 1.245 |
| CN(c1ccc(NC(=O)NCCN2CCOCC2)cc1)c1ccnc(Nc2ccc(CS(C)(=O)=O)cc2)n1 [GW830365A] | 1.217 |
| CN(c1ccc(NC(=O)Nc2cccc(Cl)c2)cc1)c1ccnc(N)n1 [GW830707A] | 0.7635 |
| CN(c1ccc(NC(=O)N2CCN(CCCN3CCOCC3)CC2)cc1)c1ccnc(Nc2ccc(CS(C)(=O)=O)cc2)n1 [GW830899A] | 1.092 |
| CN(C)CCNC(=O)Nc1ccc(N(C)c2ccnc(Nc3ccc(CS(C)(=O)=O)cc3)n2)cc1 [GW830900A] | 1.233 |
| NS(=O)(=O)c1ccc(Nc2cc(-c3cccc(O)c3)n[nH]2)cc1 [GW831090X] | 1.167 |

| SMILES | fold change in fluorescence relative to zaprinast alone |
| --- | --- |
| NS(=O)(=O)c1ccc(Nc2cc(-c3ccc(O)c(F)c3)n[nH]2)cc1 [GW831091X] | 1.195 |
| Cc1ccc2c(-c3ccnc(Nc4ccc5c(c4)OCCO5)n3)c(-c3ccc(C(F)(F)F)cc3)nn2n1 [GW832467X] | 0.6662 |
| CN(C)CCOc1ccc(-c2cc(-c3cn[nH]c3-c3ccccn3)ccn2)cc1 [GW835314X] | 0.7262 |
| COc1cc(Nc2ncc3c(C)nc(-c4cccc(C(F)(F)F)c4)n3n2)cc(OC)c1OC [GW837331X] | 0.3788 |
| Cc1ccc(-n2nc(C(C)(C)C)cc2NC(=O)Nc2ccc(OCCN3CCOCC3)c3ccccc23)cc1 [GW839464X] | 1.059 |
| COc1cc2ncn(-c3cc(OCc4ccccc4C(F)(F)F)c(C(N)=O)s3)c2cc1OC [GW843682X] | 1.213 |
| NC(=O)c1sc(-n2cnc3ccc(C(F)(F)F)cc32)cc1OCc1ccccc1Br [GW853606X] | 1.175 |
| CC(C)(C)c1ccc2nccc(Nc3cccc(O)c3)c2c1 [GW856795X] | 0.1562 |
| Nc1ncc(-c2cccc(S(N)(=O)=O)c2)c2scc(-c3ccc(F)c(Cl)c3)c12 [GW856804X] | 0.8933 |
| Cc1ccc(O)cc1Nc1ccnc2ccc(C(C)(C)C)cc12 [GW856805X] | 0.3414 |
| COc1cc(Nc2ncc3c(C)nc(-c4cccc(Oc5ccccc5)c4)n3n2)cc(OC)c1OC [GW861893X] | 0.7386 |
| COc1cc(Nc2ncc3c(C)nc(-c4cc5ccccc5[nH]4)n3n2)cc(OC)c1OC [GW869516X] | 0.08874 |
| Cc1cccc(-c2nc(Nc3ccncc3)c3sccc3n2)n1 [GW869641X] | 1.179 |
| O=C(O[C@H]1CN[C@H](C#Cc2cc3ncnc(Nc4ccc(OCc5cccc(F)c5)c(Cl)c4)c3s2)C1)N1CCOCC1 [GW869810X] | 1.08 |
| Clc1cccc(-c2nc(Nc3ccncc3)c3ccccc3n2)c1 [GW873004X] | 1.301 |
| Cc1nc(-c2ccccc2)n2nc(NCCCN3CCOCC3)ncc12 [GW874091X] | 1.267 |
| Cc1cccc(-c2nc(Nc3cccc(C(N)=O)c3)c3ccccc3n2)n1 [GW876019X] | 1.051 |
| Fc1ccc(-c2ncn(CCCN3CCOCC3)c2-c2ccncc2)cc1 [SB-210313] | 1.039 |
| Fc1ccc(-c2ncn(CCCNCc3ccccc3)c2-c2ccncc2)cc1 [SB-210486] | 0.7327 |
| Fc1ccc(-c2ncn(CCCN3CCOCC3)c2-c2ccccn2)cc1 [SB-211742] | 1.072 |
| Fc1ccc(-c2ncn(CCCN3CCOCC3)c2-c2cccnc2)cc1 [SB-211743] | 1.228 |
| Nc1nccc(-c2c(-c3ccc(F)cc3)ncn2CCCN2CCOCC2)n1 [SB-216385] | 1.045 |
